The values that follow come from patent publication US12180252B2, “Peptide derived from PEP27 peptide and uses thereof” (priority 2021, dated 2024).

Structures are written as SMILES. In brackets after ≈: the same amount, converted by molar mass. Several values for one entry are separate records, joined by “and”; a condition that tells them apart may be missing. Identical values can stand only once. Like-named read-outs stand apart in the source and are kept apart here. Where a SMILES comes first, the peptide text is derived from it.

In data set [1] the test system is L. monocytogens KCTC3710. It is filed as cell-based, Listeria monocytogenes. The method, then:
(§1) In order to evaluate the antimicrobial activity of the peptides prepared by the method of above 1, a minimal inhibitory concentration (MIC) value as the minimum concentration of a peptide, in which cells are not divided, was measured.
(§2) Specifically, the strains shown in Table 3 below were purchased, cultured in a medium having a constitutional composition suitable for each strain to a mid-log phase, and then diluted to a concentration of 2×10^4 cells/100 μl to prepare the product on a micro-titration plate (Nunc, USA). Then, PEP27, PEP27-1, PEP27-2 or PEP27-5 peptide synthesized in the above 1 was added to each well by serial dilution ½ times, followed by incubation at 37° C. for 18 hours.

Data set [2] has as its system Sa. typhimurium CCARM8009. It is filed as cell-based, Salmonella typhimurium. The following applies: Sa. typhimurium CCARM8009, antibiotics-tolerant; 37° C., 18 hours. As for the experimental part:
as §1, §2

For data set [3], the system named is Sa. typhimurium CCARM8007. It is filed as cell-based, Salmonella typhimurium. As to conditions: Sa. typhimurium CCARM8007, antibiotics-tolerant; 37° C., 18 hours. As for the experimental part:
as §1, §2

The test system of data set [4] is Sa. typhimurium KCTC1926. It is filed as cell-based, Salmonella typhimurium. The method, then: as §1, §2
The test system of data set [5] is red blood cells of a rat (Balb/c). As to conditions: 37° C., 1 hour. As for the experimental part: In order to compare the cytotoxicity of the peptides prepared by the method of above 1, erythrocyte hemolytic activity of each of the synthesized peptides was measured.
Specifically, red blood cells of a rat (Balb/c, 6 weeks old, female) were diluted with PBS (pH 7.0) to a concentration of 8%, and PEP27, PEP27-1, PEP27-2 and PEP27-5 peptides were used for treatment of the cells at concentrations of 3.13, 6.25, 12.5, 25.01 50.0 and 100.0 μM/well, respectively, followed by reaction at 37° C. for 1 hour. Then, an amount of hemoglobin contained in the supernatant obtained by centrifugation at 1,000×g was determined by measuring the absorbance at a wavelength of 414 nm. As a control which is a standard for the degree of cell destruction, the absorbance of the obtained supernatant was measured after treatment using 1% Triton X-100 (Sigma, USA) and reaction at 37° C. for 1 hour. With reference to 100% erythrocytes hemolysis activity, hemolysis of each peptide was calculated from the measured absorbance using Equation 1 below. Erythrocyte destruction ability (%)=(Absorbance A−Absorbance B)/(Absorbance C−Absorbance B)×100 [Equation 1]
(wherein, absorbance A represents the absorbance of a reaction solution treated with each peptide measured at a wavelength of 414 nm; absorbance B represents the absorbance of a reaction solution treated with PBS measured at a wavelength of 414 nm; and absorbance C represents the absorbance of a reaction solution treated with 1% Triton X-100 measured at a wavelength of 414 nm).

Data set [6] has as its system P. aeruginosa 4007. It is filed as cell-based, Pseudomonas aeruginosa.
Data set [7] has as its system B. subtilis KCTC1998. It is filed as cell-based, Bacillus subtilis. The method, then: as §1, §2
Data set [8] deals with P. aeruginosa 4891. It is filed as cell-based, Pseudomonas aeruginosa. An excerpt:
(§3) Biofilms may form on a wide variety of surfaces, including living or dead surfaces, and biofilm-associated bacteria are more tolerant to antibiotics than planktonic bacterial cells, making them antibiotic-resistant. To assess the efficacy of PEP27-2 against biofilms, we observed the anti-biofilm activity of PEP27-2 in S. aureus (ATCC 25923 and CCARM 3090), E. coli (ATCC 25922 and CCARM 1238), and P. aeruginosa (ATCC 27853 and 4891).
(§4) Specifically, among the strains listed in Table 3 above, Staphylococcus aureus, E. coli and Pseudomonas erujinosa, respectively, were cultured in each medium to a mid-log phase, diluted to a cell concentration of 5×10^4 cells/100 μl, and then, inoculated into a micro-plate (SPL). Then, PEP27-2 peptide was diluted 1/10 times with 10 mM PBS solution (pH 7.2) and 10 μl of the solution was added to each well, followed by incubation at 37° C. for 24 hours. After completely removing the supernatant, the solution was fixed with 100% methanol for 15 minutes, stained with a crystal violet dye solution for 1 hour, washed 3 times, and then dissolved in 95% ethanol, followed by measuring the absorbance at a wavelength of 595 nm using a micro titration plate reader, thereby determining a biofilm minimal inhibitory concentration value for each strain.

For data set [9], the system named is P. aeruginosa ATCC27853. It is filed as cell-based, Pseudomonas aeruginosa.
Text: as §3, §4

In data set [10] the test system is P. aeruginosa ATCC15692. It is filed as cell-based, Pseudomonas aeruginosa.
Data set [11] concerns E. coli ATCC27325. It is filed as cell-based, Escherichia coli. As for the experimental part:
as §1, §2

The test system of data set [12] is E. coli CCARM1238. It is filed as cell-based, Escherichia coli. As to conditions: E. coli CCARM1238, antibiotics-tolerant; 37° C., 18 hours. As for the experimental part:
as §1, §2

In data set [13] the test system is E. coli ATCC27325. It is filed as cell-based, Escherichia coli.
Text: as §3, §4
This is another data set of the same source.

The subject of data set [14] is E. coli CCARM1238. It is filed as cell-based, Escherichia coli. As to conditions: 37° C., 24 hours.
Text: as §3, §4

The test system of data set [15] is E. coli ATCC25922. It is filed as cell-based, Escherichia coli.
Text: as §3, §4

Setting [16] is: Peptide concentration 100 μM, 100% = 1% Triton X-100.

As to `CSCC[C@H](N)C(=O)N[C@@H](Cc1c[nH]c2ccccc12)C(=O)N[C@@H](CCCCN)C(=O)N[C@@H](Cc1c[nH]c2ccccc12)C(=O)N[C@@H](Cc1ccccc1)C(=O)N[C@@H](Cc1c[nH]cn1)C(=O)N[C@@H](CC(N)=O)C(=O)N[C@H](C(=O)N[C@@H](CC(C)C)C(=O)N[C@@H](CO)C(=O)N[C@@H](Cc1c[nH]c2ccccc12)C(=O)NCC(=O)N[C@@H](Cc1c[nH]c2ccccc12)C(=O)N[C@@H](CC(C)C)C(=O)N[C@@H](CC(C)C)C(=O)N[C@@H](C)C(=O)N[C@@H](CC(=O)O)C(=O)N[C@@H](CCCCN)C(=O)N[C@@H](CCCNC(=N)N)C(=O)N1CCC[C@H]1C(=O)N[C@@H](C)C(=O)N[C@@H](CCCNC(=N)N)C(=O)N[C@@H](CC(=O)O)C(=O)N[C@@H](Cc1ccc(O)cc1)C(=O)N[C@@H](CC(N)=O)C(=O)N[C@@H](CCCNC(=N)N)C(=O)N[C@@H](CCCCN)C(N)=O)C(C)C` [PEP27-2] (H-MWKWFHNVLSWGWLLADKRPARDYNRK-NH2), the Minimal inhibitory concentration in data set [1] (KCTC3710, 18 h) came out at 8 µM (≈ 27.8 µg/mL); in [2], 4 µM (≈ 13.9 µg/mL); in [3], 4 µM (≈ 13.9 µg/mL); in [4] (KCTC1926, 18 h) it was 8 µM (≈ 27.8 µg/mL); in [7] (KCTC1998, 18 h) it was 4 µM (≈ 13.9 µg/mL); in data set [11] (ATCC27325, 18 h) it was 4 µM (≈ 13.9 µg/mL). Further, the Minimal inhibitory concentration in data set [12] turned out to be 4 µM (≈ 13.9 µg/mL). In addition, the Erythrocyte destruction ability is 0% in data set [5] (Peptide concentration 3.13 μM); 2.30% in data set [5] (Peptide concentration 6.25 μM); 14.96% in [5] (Peptide concentration 12.5 μM); 40.51% in [5] (Peptide concentration 25 μM); 62.47% in [5] (Peptide concentration 50 μM); 75.8% and 75.84% in [5] (setting [16]). Besides, the “Biofilm minimal inhibitory concentration” value turned out to be 8 µM in [6] (4007, 24 h); 8 µM in data set [8] (4891, 24 h); 8 µM in data set [9] (ATCC27853, 24 h); 8 µM in [10] (ATCC15692, 24 h); 8 µM in [13] (ATCC27325, 24 h); 8 µM in data set [14]. In [15] (ATCC25922, 24 h), the “Biofilm minimal inhibitory concentration” value stood at 8 µM. Moreover, the entries for the “maximum percent biofilm inhibition” value in data set [9] (ATCC27853) and in data set [15] (ATCC25922) were 81.2% and 91.8%, respectively.

As to `CC[C@H](C)[C@H](NC(=O)CN)C(=O)NCC(=O)N[C@@H](C)C(=O)N[C@H](C(=O)N[C@@H](CC(C)C)C(=O)N[C@@H](CCCCN)C(=O)N[C@H](C(=O)N[C@@H](CC(C)C)C(=O)N[C@H](C(=O)N[C@H](C(=O)NCC(=O)N[C@@H](CC(C)C)C(=O)N1CCC[C@H]1C(=O)N[C@@H](C)C(=O)N[C@@H](CC(C)C)C(=O)N[C@H](C(=O)N[C@@H](CO)C(=O)N[C@@H](Cc1c[nH]c2ccccc12)C(=O)N[C@H](C(=O)N[C@@H](CCCCN)C(=O)N[C@@H](CCCNC(=N)N)C(=O)N[C@@H](CCCCN)C(=O)N[C@@H](CCCNC(=N)N)C(=O)N[C@@H](CCC(N)=O)C(=O)N[C@@H](CCC(N)=O)C(N)=O)[C@@H](C)CC)[C@@H](C)CC)[C@@H](C)O)[C@@H](C)O)C(C)C)C(C)C` [Melittin, reference compound], the Minimal inhibitory concentration in [1] (L. monocytogens KCTC3710, Gram-positive, 37° C., 18 hours) came out at 4 µM (≈ 11.4 µg/mL); in data set [2], 4 µM (≈ 11.4 µg/mL); in [3], 4 µM (≈ 11.4 µg/mL); in data set [4] (Sa. typhimurium KCTC1926, Gram-negative, 37° C., 18 hours), 4 µM (≈ 11.4 µg/mL); in data set [7] (B. subtilis KCTC1998, Gram-positive, 37° C., 18 hours), 4 µM (≈ 11.4 µg/mL); in [11] (E. coli ATCC27325, Gram-negative, 37° C., 18 hours), 2 µM (≈ 5.69 µg/mL). The compound further returned a Minimal inhibitory concentration in [12] of 4 µM (≈ 11.4 µg/mL). The Erythrocyte destruction ability in data set [5] (Peptide concentration 3.13 μM) is listed as 27.33%; in data set [5] (Peptide concentration 6.25 μM), 49.41%; in data set [5] (Peptide concentration 12.5 μM), 69.75%; in [5] (Peptide concentration 25 μM), 83.99%; in [5] (Peptide concentration 50 μM), 97.76%; in [5] (setting [16]) it was 99.17%. The “Biofilm minimal inhibitory concentration” value came to 4 µM in data set [6] (P. aeruginosa 4007, 37° C., 24 hours); 8 µM in data set [8] (P. aeruginosa 4891, 37° C., 24 hours); 4 µM in data set [9] (P. aeruginosa ATCC27853, 37° C., 24 hours); 4 µM in [10] (P. aeruginosa ATCC15692, 37° C., 24 hours); 4 µM in data set [13] (E. coli ATCC27325, 37° C., 24 hours); 4 µM in data set [14]. Moreover, in data set [15] (E. coli ATCC25922, 37° C., 24 hours), the “Biofilm minimal inhibitory concentration” value was determined as 4 µM.
